System: Human subcutaneous adipocytes
Test: Promotion of fat degradation (lipolysis) in human adipocytes, free glycerol in culture supernatant
Assay type: cell-based
Conditions: 30 μM test substance, 3 hours incubation at 37° C., versus 1% (v/v) DMSO control; Lipolysis Assay Kit; FIG. 1
Procedure: Human subcutaneous adipocytes (Zen-Bio, Inc.) plated onto a 96-well plate was obtained and pre-cultivated under a 5% CO2 atmosphere at 37° C. for 5 days in D-MEM/Ham's F12 Medium (1:1, v/v) containing 3% (v/v) fetal bovine serum, 15 mM HEPES (pH 7.4), 33 μM biotin, 17 μM pantothenate, 100 nM human insulin, 1 μM dexamethasone, 100 U/mL penicillin, 100 μg/mL streptomycin and 0.25 μg/mL amphotericin B. Then, an astaxanthin free form (Wako Pure Chemical Industries, Ltd.: purity 94% or more) and the astaxanthin monoester obtained in Preparation Example 1 were dissolved in dimethyl sulfoxide (DMSO) to prepare stock solutions at a concentration of 3 mM, respectively. The stock solutions were diluted to 30 μM with LIP-2 Assay Buffer (Zen-Bio, Inc.) to prepare test solutions. As a control, 1% (v/v) DMSO solution which was diluted with LIP-2 Assay Buffer was used. Each of the wells was washed with Wash Buffer (Zen-Bio, Inc.) and the test solutions were added to the wells. These wells were incubated under a 5% CO2 atmosphere at 37° C. for 3 hours. After the incubation, the amount of free glycerol in the culture supernatant was measured using a Lipolysis Assay Kit (Zen-Bio, Inc.). […]

Molecule | percentage of fat degradation promoted, (A/B)×100(%), amount of free glycerol relative to control
CC1=C(/C=C/C(C)=C/C=C/C(C)=C/C=C/C=C(C)/C=C/C=C(C)/C=C/C2=C(C)C(=O)[C@@H](O)CC2(C)C)C(C)(C)C[C@H](O)C1=O [astaxanthin] | significantly increased
astaxanthin monoester | significantly increased

Reference: patent US20090018210A1, “A Method for Promoting Fat Degradation” (YAMAHA HATSUDOKI KABUSHIKI KAISHA, priority 2007, published 2009)
